Test systems include HCT-15 colon; K-562 leukemia; NCI-H226 lung; OVCAR-3 ovarian; OVCAR-8 ovarian; SK-MEL-5 melanoma; UO-31 renal; RXF 393 renal; SR leukemia.
Common to all, as to experiment: DTP human tumour cell line panel, 48 h

Data on 16 molecules can be found in PubChem BioAssay (NCI).

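Step 1: Grow cells in 96-well plates. Step 2: Expose to compound for 48 hours at 5 concentrations. Step 3: Interpolate endpoints linearly; if unreached, use highest concentration. Definition used: TGI = concentration required for complete inhibition of growth.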

A word on the TGI: it is the concentration at which net growth stops. Low values mean greater sensitivity of the cells, high ones lower sensitivity of the cells. Consider `COc1ccc2ccccc2c1C1OC(=O)c2ccccc21` (centres undefined), for which the TGI in the assay with HCT-15 colon, in the assay with K-562 leukemia, in the assay on NCI-H226 lung, in the assay with OVCAR-3 ovarian, in the assay on OVCAR-8 ovarian and in the assay on SK-MEL-5 melanoma was greater than 100 µM throughout. The TGI in the assay with UO-31 renal was greater than 100 µM.

`COc1ccc(OC)c2c1C(=O)C1CC1(Br)C2=O` (centres undefined): the TGI in the assay on HCT-15 colon, in the assay on K-562 leukemia, in the assay on OVCAR-3 ovarian, with OVCAR-8 ovarian, in the assay with SK-MEL-5 melanoma and with UO-31 renal was greater than 100 µM each time.

Consider `CN(/N=C/c1cccc2cccnc12)c1ccccc1`, for which the TGI is greater than 100 µM with HCT-15 colon; greater than 100 µM with K-562 leukemia; greater than 100 µM in the assay on NCI-H226 lung; 68 µM in the assay on OVCAR-3 ovarian; greater than 100 µM in the assay on OVCAR-8 ovarian; greater than 100 µM with RXF 393 renal. Moreover, the TGI in the assay on SK-MEL-5 melanoma and in the assay with UO-31 renal was greater than 100 µM throughout.

In the case of `[N-]=[N+]=NC(CI)c1cn([C@H]2C[C@H](O)[C@@H](CO)O2)c(=O)[nH]c1=O` (some centres undefined), the TGI in the assay with HCT-15 colon, in the assay on K-562 leukemia, in the assay on NCI-H226 lung, with OVCAR-3 ovarian, in the assay with OVCAR-8 ovarian and in the assay on RXF 393 renal was greater than 100 µM each time. In addition, the TGI in the assay on SK-MEL-5 melanoma, in the assay with SR leukemia and in the assay on UO-31 renal was greater than 100 µM throughout.

`CC(C)c1cccc2sc(NC(=O)C(=O)C(C#N)c3cccc4ccccc34)nc12` (centres undefined): the TGI in the assay with HCT-15 colon was greater than 100 µM; with NCI-H226 lung, greater than 100 µM; with OVCAR-3 ovarian, greater than 100 µM; in the assay on OVCAR-8 ovarian it was greater than 100 µM; with RXF 393 renal it was 92.3 µM; in the assay on SK-MEL-5 melanoma it was greater than 100 µM. Moreover, the TGI in the assay on SR leukemia and in the assay with UO-31 renal was greater than 100 µM each time.

As for `O=c1c2ccccc2nc(-c2ccccc2)n1NC1OC(CO)C(O)C(O)C1O` (centres undefined), the TGI with HCT-15 colon, in the assay with K-562 leukemia, in the assay on NCI-H226 lung, in the assay with OVCAR-3 ovarian, in the assay on OVCAR-8 ovarian and with SK-MEL-5 melanoma was greater than 100 µM each time. Moreover, the TGI with UO-31 renal was greater than 100 µM.

`CCOC(=O)C(=Cc1cccnc1C)C(=O)OCC`: the TGI in the assay on HCT-15 colon worked out at 19.4 µM; in the assay with K-562 leukemia, 17.3 µM; with NCI-H226 lung it was 53.3 µM; with OVCAR-3 ovarian, 8.67 µM; in the assay on OVCAR-8 ovarian, 16.9 µM; with RXF 393 renal it was 9.8 µM. Moreover, the TGI turned out to be 25.1 µM with SK-MEL-5 melanoma, 26.2 µM in the assay with SR leukemia and 17.6 µM in the assay with UO-31 renal.

Take `Cc1ccccc1NC(=O)C(=O)CC(=O)c1c(C)n([O-])c2ccccc2[n+]1=O`: the TGI in the assay on HCT-15 colon, with K-562 leukemia, in the assay with NCI-H226 lung, with OVCAR-3 ovarian, in the assay on OVCAR-8 ovarian and in the assay with RXF 393 renal was greater than 100 µM each time. Further, the TGI in the assay on SR leukemia is 0.0875 µM; in the assay on UO-31 renal, greater than 100 µM.

Take `O=CN/C=C/c1ccc(O)c(O)c1`: the TGI with HCT-15 colon, in the assay on K-562 leukemia, in the assay on NCI-H226 lung, in the assay with OVCAR-3 ovarian, in the assay on OVCAR-8 ovarian and in the assay with RXF 393 renal was greater than 100 µM in each case. Also, the TGI in the assay with UO-31 renal is greater than 100 µM.

`CCOC(=O)NC(=O)c1cn(CCN2CCN(c3ncnc4nc[nH]c34)CC2)c(=O)[nH]c1=O`: the TGI in the assay on HCT-15 colon, in the assay with K-562 leukemia, in the assay with NCI-H226 lung, in the assay on OVCAR-3 ovarian, in the assay with OVCAR-8 ovarian and in the assay with RXF 393 renal was greater than 100 µM in each case. Also, the TGI in the assay with SK-MEL-5 melanoma, in the assay on SR leukemia and in the assay on UO-31 renal was greater than 100 µM throughout.

For `Cc1ccc(Nc2nc(C)c(C(/C=C/c3ccc(/C=C/C(=N/NC(=O)C[n+]4ccccc4)c4sc(Nc5ccc(C)cc5[N+](=O)[O-])nc4C)cc3)=N\NC(=O)C[n+]3ccccc3)s2)c([N+](=O)[O-])c1`, the TGI in the assay with HCT-15 colon was greater than 100 µM; in the assay with K-562 leukemia it was greater than 100 µM; with NCI-H226 lung, 84.5 µM; with OVCAR-3 ovarian, greater than 100 µM; in the assay with OVCAR-8 ovarian, greater than 100 µM; in the assay on RXF 393 renal, greater than 100 µM. The TGI in the assay with SR leukemia and in the assay on UO-31 renal was greater than 100 µM in each case.

`Cc1cc(Cl)ccc1NC(=O)CC/C(CC(=O)C(C)C)=N\NC(=O)C[n+]1ccccc1`: the TGI in the assay with HCT-15 colon, in the assay with K-562 leukemia, with NCI-H226 lung, with OVCAR-3 ovarian, in the assay on OVCAR-8 ovarian and in the assay with RXF 393 renal was greater than 100 µM each time. Besides, the TGI with SK-MEL-5 melanoma, in the assay on SR leukemia and with UO-31 renal was greater than 100 µM throughout.

For `COC(=O)CCC(NC(=S)N/N=C/c1ccco1)C(=O)OC` (centres undefined), the TGI in the assay on HCT-15 colon, in the assay on K-562 leukemia, in the assay with NCI-H226 lung, in the assay on OVCAR-3 ovarian, in the assay with OVCAR-8 ovarian and with RXF 393 renal was greater than 100 µM each time. Besides, the TGI in the assay on SK-MEL-5 melanoma, in the assay on SR leukemia and with UO-31 renal was greater than 100 µM each time.

`COc1ccc(C2=NN(c3ccccc3)C[N+](c3ccc(OC)cc3)=N2)cc1`: the TGI was greater than 100 µM with HCT-15 colon; 63.1 µM with K-562 leukemia; 64.6 µM in the assay on NCI-H226 lung; 46 µM in the assay with OVCAR-3 ovarian; greater than 100 µM with OVCAR-8 ovarian; 72.1 µM in the assay on RXF 393 renal. The TGI is 29.8 µM with SK-MEL-5 melanoma, greater than 100 µM in the assay with SR leukemia and 71.1 µM with UO-31 renal.

Consider `COc1ccc(C(C#N)Cc2cc(OC)c(OC)c(OC)c2)cc1` (centres undefined), for which the total growth inhibition concentration (TGI) in the assay with HCT-15 colon was greater than 100 µM; with K-562 leukemia, greater than 100 µM; in the assay with NCI-H226 lung it was greater than 100 µM; in the assay on OVCAR-3 ovarian, greater than 100 µM; in the assay on OVCAR-8 ovarian, greater than 100 µM; in the assay on RXF 393 renal it was 45.2 µM. In addition, the TGI in the assay with SK-MEL-5 melanoma is 37.3 µM; with UO-31 renal, greater than 100 µM.

Turning to `CN1c2ccccc2N(C)C23N(C)c4ccccc4N(C)C12N(C)c1ccccc1N3C` (centres undefined), the TGI with HCT-15 colon, with K-562 leukemia, with NCI-H226 lung, with OVCAR-3 ovarian, in the assay with OVCAR-8 ovarian and in the assay with RXF 393 renal was greater than 100 µM in each case. Further, the TGI in the assay with SK-MEL-5 melanoma and in the assay with UO-31 renal was greater than 100 µM in each case.
